Several values for one entry are separate records, joined by “and”; a condition that tells them apart may be missing. Equal entries are not always repeated.
How the values were obtained:
Format in all cases: cell-based, Ostrinia nubilalis
[1] = tested on: C1::LexA::ecdysone fusion protein (plasmid PHP10956; ligand-binding domain of the Ecdysone receptor)
Description: (§1) To examine the effect of the Ecdysone and USP receptors on promoter-driven expression, a transient transactivation assay was developed using a cell suspension culture derived from maize embryos. (See also, U.S. Pat. No. 5,886,244.) A reporter plasmid, designated PHP11545, was constructed in the pSP72 vector and contained 8 LexA operators, a minimal fragment of the CaMV-59 constitutive promoter, the Omega leader sequence, Adh intron 1, the coding sequence for firefly luciferase, and the PinII terminator sequences.
(§2) Two DNA constructs encoding effector proteins were generated. A chimeric Ecdysone receptor construct designated PHP10956 was generated. PHP10956 contains the Nopaline synthase (NOS) promoter, the Omega leader sequence, Adh1 intron, and the potato protease inhibitor II (PinII) termination sequences cloned into a pUC vector. A fragment encoding a fusion between the maize C1 transactivation domain, the LexA DNA binding domain, and the ligand-binding domain of the Ecdysone receptor was cloned downstream of the intron.
(§3) These constructs were introduced into embryogenic suspension cells by microprojectile bombardment as described by Unger et al. (1993) The Plant Cell 5:831–841. Plasmid DNA encoding effector and reporter sequences was mixed with 50 μl (15 mg/ml) of 1.0 μm tungsten microprojectiles. DNA was precipitated by addition of 50 μl 2.5 M CaCl2 and 20 μl 0.1M spermidine. Microprojectiles and precipitated DNA were centrifuged to a pellet and the supernatant was removed. The pellet was washed by sonication in the presence of 250 μl absolute ethanol, centrifuged and ethanol removed. Sixty μl of fresh absolute ethanol was added and this mixture sonicated to disperse the pellet. Ten μl aliquots of this microprojectile-DNA mixture were placed on each macrocarrier and bombarded into maize suspension cells using a helium-driven microprojectile gun, PDS-1000 (1100 psi rupture disk pressure). […]

[2] = tested on: USP receptor (plasmid PHP10967) and C1::LexA::ecdysone fusion protein (plasmid PHP10956); assay: Transient transactivation assay, luciferase reporter PHP11545, maize embryogenic suspension cells, chimeric EcR plus USP (NosCLO/NosUSP)
Description: as §1, §2
A DNA construction containing the USP coding sequences was generated and designated PHP10967. PHP10967 contains the Nos promoter, the Omega leader sequence, Adh1 intron, and the PinII terminator sequences cloned into the pUC vector. The nucleic acid sequence encoding the USP coding region was inserted downstream of the intron.
as §3, with “pellet.” for “pellet. Ten μl aliquots of this microprojectile-DNA mixture were placed on each macrocarrier and bombarded into maize suspension cells using a helium-driven microprojectile gun, PDS-1000 (1100 psi rupture disk pressure).”

[3] = tested on: chimeric Ecdysone receptor: VP16 activation domain, Gal4 DNA binding domain, ligand-binding domain of the Ecdysone receptor (PHP10513); assay: Stable transactivation assay, GAL4-responsive luciferase reporter PHP1654, leaf punches of T0 maize plants, PHP10513; settings: 10 μM RH5992 in H2O, 16 hours, individual T0 plant, 20 μl of 200 μl extract
Procedure: (§4) To further examine the effect of the Ecdysone receptors on promoter-driven expression, a stable transactivation assay was performed using a chimeric Ecdysone receptor. DNA constructs were generated for the expression of both effector and reporter DNA sequences.
(§5) A reporter plasmid, designated PHP1654, was constructed in the pSP72 vector and contained 5 GAL4 responsive elements, a minimal CaMV-59 constitutive promoter, the Omega' leader sequence, Adh intron 1, the coding sequence for firefly Luciferase, and the PinII terminator sequences.
The plasmid designated PHP10513 also contains the Nopaline synthase (NOS) promoter, the Omegá leader sequence, Adh1 intron, 355 promoter, PAT gene, and the potato protease inhibitor II (PinII) termination sequences cloned into a pUC vector. However, the fragment encoding the chimeric receptor immediately downstream of the intron, comprises a fusion between the VP16 activation domain, the Gal4 DNA binding domain, and the ligand-binding domain of the Ecdysone receptor.
Immature embryos approximately 1.5 to 2.0 mm long from the Hi-II genotype (Armstrong and Phillips (1988) Crop Sci. 28:363–369) were bombarded with the PHP1654 reporter plasmid and either PHP10513 or PHP10512. As noted above, a selectable marker gene, PAT, was contained on PHP10513 and PHP10512. The PAT gene confers resistance to the herbicide Bialophos. (Wohlleben et al. (1988) Gene 70:25–37.)
Embryos were bombarded using the protocols described in Tomes et al. (1994) Plant Cell, Tissue, and Organ culture, Fundamental Methods 197–213. Specifically, the Hi-II immature embryos were bombarded and cultured on selection medium as described by Songstad et al. 1993 Agronomy Abstracts 183. Plant regeneration from transgenic calli was performed according to the protocol of Armstrong and Phillips (1988) Crop Sci 28:363–369, except that bialaphos (3 mg/l) was added to each of the regeneration media. Plants were established in the greenhouse.
The transactivation of the luciferase reporter sequence by a chimeric Ecdysone receptor was assayed using standard protocols. […]

[4] = tested on: chimeric Ecdysone receptor: maize C1 transactivation domain, Gal4 DNA binding domain, ligand-binding domain of the Ecdysone receptor (PHP10512); assay: Stable transactivation assay, GAL4-responsive luciferase reporter PHP1654, leaf punches of T0 maize plants, PHP10512; settings: 10 μM RH5992 in H2O, 16 hours; plasmid PHP10512, event 78; individual T0 plant; 20 μl of 200 μl extract
Procedure: as §4, §5
Two DNA constructions encoding chimeric Ecdysone receptor proteins were generated. The chimeric Ecdysone receptor construct designated PHP10512 contains the Nopaline synthase (NOS) promoter, the Omegá leader sequence, Adh1 intron, 355 promoter, PAT gene and the potato protease inhibitor II (PinII) termination sequences cloned into a pUC vector. A fragment encoding a fusion between the maize C1 transactivation domain, the Gal4 DNA binding domain, and the ligand-binding domain of the Ecdysone receptor was cloned downstream of the intron.
Immature embryos approximately 1.5 to 2.0 mm long from the Hi-II genotype (Armstrong and Phillips (1988) Crop Sci. 28:363–369) were bombarded with the PHP1654 reporter plasmid and either PHP10513 or PHP10512. As noted above, a selectable marker gene, PAT, was contained on PHP10513 and PHP10512. […]

SMILES: CCc1ccc(C(=O)NN(C(=O)c2cc(C)cc(C)c2)C(C)(C)C)cc1 [RH5992, 3,5-dimethylbenzoic acid 1—1 (1,1-dimethylethyl)-2(4-ethylbenzoyl)hydrazide]
- Average Light Units (luciferase expression) ([1]; 10 μM RH5992, NosCLO only, effector dose 0.02 μg, 16 to 18 hours at 26° C., maize suspension cells): 153613 Light Units
- Fold Induction (luciferase) ([1]; 10 μM RH5992 vs no ligand, NosCLO only, 0.02 μg): 8.4x
- Transactivation of the LexA responsive luciferase reporter gene (in words) ([1]; in the presence of the RH5992 ligand, only C1::LexA::ecdysone fusion protein (PHP10956), no USP): resulted in the transactivation of the LexA responsive luciferase reporter gene
- Average Light Units (luciferase expression) ([2]; 10 μM RH5992, NosCLO/NosUSP, 0.02 μg each, 16 to 18 hours at 26° C., maize suspension cells): 201808 Light Units
- Fold Induction (luciferase) ([2]; 10 μM RH5992 vs no ligand, NosCLO/NosUSP, 0.02 μg each): 53x
- Transactivation of the LexA responsive luciferase reporter (PHP11545) ([2]; in the presence of the RH5992 ligand, USP (PHP10967) plus C1::LexA::ecdysone fusion (PHP10956)): 53 fold
- RH5992 treated (Light Units), luciferase activity ([3]; plasmid PH10513, event 30): 38093 Light Units and 26394 Light Units and 24632 Light Units and 33636 Light Units and 28213 Light Units and 22137 Light Units and 105341 Light Units and 44639 Light Units and 49279 Light Units and 83241 Light Units and 61320 Light Units and 130618 Light Units and 95166 Light Units and 35641 Light Units and 37955 Light Units and 38507 Light Units and 37855 Light Units and 42346 Light Units
- RH5992 treated (Light Units), luciferase activity ([3]; plasmid PHP10513, event 44): 605147 Light Units and 528950 Light Units and 303021 Light Units and 573842 Light Units and 417072 Light Units and 511220 Light Units and 290095 Light Units
- RH5992 treated (Light Units), luciferase activity ([3]; plasmid PHP10513, event 117): 90037 Light Units and 40005 Light Units and 149594 Light Units and 75379 Light Units and 49243 Light Units and 114913 Light Units and 57607 Light Units and 46075 Light Units
- RH5992 treated (Light Units), luciferase activity [4]: 3771 Light Units and 1819 Light Units and 7742 Light Units and 1027 Light Units and 9742 Light Units and 2486 Light Units and 8494 Light Units and 3988 Light Units and 9265 Light Units and 6198 Light Units and 6293 Light Units and 1045 Light Units and 8354 Light Units and 4720 Light Units

Source: patent US7151168B2, “Ecdysone receptors and methods for their use” (Pioneer Hi-Bred International, Inc., priority 1998, dated 2006)
